Results as given in PubChem BioAssay (NCI).
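All cell lines were grown in 96-well plates and treated with compound for 48 hours. TGI: concentration producing complete growth inhibition.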

How the values were obtained:
Experiment in all cases: NCI-60 cell line screen, 48 h
NCI-H23 lung = tested on: NCI-H23 lung
PC-3 prostate = tested on: PC-3 prostate
786-0 renal = tested on: 786-0 renal
OVCAR-3 ovarian = tested on: OVCAR-3 ovarian
MDA-MB-231 breast = tested on: MDA-MB-231 breast
SF-539 CNS = tested on: SF-539 CNS
DU-145 prostate = tested on: DU-145 prostate
HL-60(TB) leukemia = tested on: HL-60(TB) leukemia
CCRF-CEM leukemia = tested on: CCRF-CEM leukemia
OVCAR-4 ovarian = tested on: OVCAR-4 ovarian
SW-620 colon = tested on: SW-620 colon
SF-268 CNS = tested on: SF-268 CNS
MDA-MB-435 = tested on: MDA-MB-435
SK-MEL-28 melanoma = tested on: SK-MEL-28 melanoma
SF-295 CNS = tested on: SF-295 CNS
SK-MEL-5 melanoma = tested on: SK-MEL-5 melanoma
BT-549 breast = tested on: BT-549 breast
MDA-N = tested on: MDA-N
CAKI-1 renal = tested on: CAKI-1 renal
RXF 393 renal = tested on: RXF 393 renal

Structure (SMILES) | TGI (NCI-H23 lung) [µM] | TGI (PC-3 prostate) [µM] | TGI (786-0 renal) [µM] | TGI (OVCAR-3 ovarian) [µM] | TGI (MDA-MB-231 breast) [µM] | TGI (SF-539 CNS) [µM] | TGI (DU-145 prostate) [µM] | TGI (HL-60(TB) leukemia) [µM] | TGI (CCRF-CEM leukemia) [µM] | TGI (OVCAR-4 ovarian) [µM] | TGI (SW-620 colon) [µM] | TGI (SF-268 CNS) [µM] | TGI (MDA-MB-435) [µM] | TGI (SK-MEL-28 melanoma) [µM] | TGI (SF-295 CNS) [µM] | TGI (SK-MEL-5 melanoma) [µM] | TGI (BT-549 breast) [µM] | TGI (MDA-N) [µM] | TGI (CAKI-1 renal) [µM] | TGI (RXF 393 renal) [µM]
Cc1nc2ccccc2c(=O)n1NC(=O)c1ccc(CS)cc1 | 52.1 | 19.2 | 23.6 | 30.6 | 84.6 | 26.6 | 88.2 | > 100 | 3.6 | > 100 | 21.7 | 52 | 31.3 | 28.8 | > 100 | 29.2 | 46.3 |  |  | 
CCC(C)(C)/C(CC(O)(C(F)(F)F)C(F)(F)F)=N\O | > 100 | > 100 | > 100 | > 100 | > 100 | > 100 | > 100 | > 100 | > 100 | > 100 | > 100 | > 100 | > 100 | > 100 | > 100 | > 100 |  | > 100 | > 100 | > 100
CNC(=S)N(C)C(=S)Nn1c(=O)c(C)nn(C)c1=S | > 100 |  | > 100 |  |  | > 100 |  | > 100 | > 100 | > 100 | > 100 | > 100 |  | > 100 | > 100 | > 100 |  |  |  | > 100
CS(=O)(=O)N/N=C/CN1C(=O)c2ccccc2C1=O | > 100 |  | > 100 | > 100 |  | > 100 |  | > 100 | > 100 | > 100 | > 100 | > 100 |  | > 100 | > 100 | > 100 |  |  | > 100 | 
NS(=O)(=O)c1nn2c(Br)c(-c3ccccc3)nc2s1 | 11.1 | 18.5 | 9.34 | 15.9 | 15.9 | 3.95 | 8.5 | 36.4 | 11 | 24.4 | 12.4 | 30.9 | 16.3 | 23.1 | 22.6 | 6.48 | 7.69 |  | 9.72 | 9.48
Cc1cc2nc3c(C#N)c(-c4ccccc4)cc(Nc4ccc(Cl)cc4)n3c2cc1C | > 100 | > 100 | > 100 | > 100 | > 100 | > 100 |  |  | > 100 | > 100 | > 100 | > 100 | > 100 | > 100 | > 100 | > 100 | > 100 | > 100 | > 100 | > 100
COC(=O)C(C(=O)C(=O)Nc1cccc(OC)c1)c1cnc2ccccc2n1 (stereo unspecified) | > 100 |  | > 100 |  |  | > 100 |  | > 100 | > 100 | > 100 | > 100 | > 100 |  | > 100 | > 100 | > 100 |  |  | > 100 | > 100
